Assay results taken from US20120101109A1, “ETHANOLAMINE SALT OF N- (3-METHOXY-5-METHYLPYRAZIN-2YL) -2- (4-[1, 3, 4-OXADIAZOLE-2-YL] PHENYL) PYRIDINE-3- SULPHONAMIDE” (ASTRAZENECA AB, priority 2005, published 2012).
Marks after values point to notes of the source that are not given here.

Columns and labels:
[1] = Intrinsic dissolution rate, fibre optic UV probe with SOTAX dissolution apparatus; type: physicochemical; conditions: pH 6.5 buffer, 37° C., 50 mg discs, UV at 260 nm, triplicate
Method: The intrinsic dissolution rate was determined by using a fibre optic UV probe, measuring at 260 nm, with a SOTAX dissolution apparatus. Each of the pots in the dissolution batch was filled with 500 ml of pH 6.5 buffer and heated to 37° C. 50 mg Of each compound was weighed out in triplicate. Each of these samples was placed into a 4 mm dye and compressed at 50 psi for 5 minutes to produce suitable discs. These discs were then placed into the dissolution bath and the UV absorbance measured at regular intervals. Standards were prepared at approximately 20 μg/ml concentrations in pH 6.5 buffer. Scans of the background and corresponding standards were taken and a standard recovery check was produced.

[2] = Stability of the salts on storage, assessed by NMR; conditions: for stability of the salt: prolonged storage at ambient (400 MHz proton NMR), ammonium salt also vacuum drying at 50° C. overnight
[3] = Solubility of the salts in water, N-methylpyrrolidinone and IMS

Compound | IDR (intrinsic dissolution rate) [1] | stability of the salt assessed by NMR ([2]; 2 days at 50° C.) | stability of the salt [2] | solubility in N-methylpyrrolidinone ([3]; N-methylpyrrolidinone) | solubility in water ([3]; water)
COc1nc(C)cnc1NS(=O)(=O)c1cccnc1-c1ccc(-c2nnco2)cc1.NCCO [Compound (I) Ethanolamine Salt] | 0.84 mg/min/cm^2 | stable |  |  | 
COc1nc(C)cnc1NS(=O)(=O)c1cccnc1-c1ccc(-c2nnco2)cc1 [Compound (I), N-(3-methoxy-5-methylpyrazin-2-yl)-2-(4-[1,3,4-oxadiazol-2-yl]phenyl)pyridine-3-sulphonamide] | 0.05 mg/min/cm^2 |  |  |  | 
COc1nc(C)cnc1[N-]S(=O)(=O)c1cccnc1-c1ccc(-c2nnco2)cc1.[Na+] [Compound (I) Sodium Salt] | 1.37 ^a mg/min/cm^2 |  | very stable |  | 
COc1nc(C)cnc1NS(=O)(=O)c1cccnc1-c1ccc(-c2nnco2)cc1.N [Compound (I) Ammonium Salt] | 0.14 mg/min/cm^2 |  | relatively unstable | is not | very water soluble
